From the NIST ThermoML archive (doi:10.1016/j.fluid.2017.12.011)

Assays:
[1] = Liquid, Ebulliometric method (Recirculating still)
[2] = Boiling temperature at pressure P; settings: Liquid, Ebulliometric method (Recirculating still)

Cc1cccc(C)c1O [2,6-dimethylphenol]
Settings	Boiling temperature at pressure P [°C]	vapor or sublimation pressure [kPa]
[1], 418.11 K	–	20
[2], 6.7 kPa	116.91	–
[2], 8.87 kPa	122.99	–
[2], 10.89 kPa	128.28	–
[2], 12.74 kPa	132.49	–
[2], 14.98 kPa	136.82	–
[2], 16.8 kPa	140.18	–
[2], 18.91 kPa	143.50	–
[2], 20 kPa	144.96	–
[2], 21.02 kPa	146.28	–
[2], 22.83 kPa	148.86	–
[2], 33.02 kPa	163.40	–
[2], 35.64 kPa	165.8	–

Cc1ccccc1O [2-methylphenol]
Settings	Boiling temperature at pressure P [°C]	vapor or sublimation pressure [kPa]
[1], 411.26 K	–	20
[2], 20 kPa	138.11	–

Cc1cccc(O)c1 [3-methylphenol]
Settings	Boiling temperature at pressure P [°C]	vapor or sublimation pressure [kPa]
[1], 422.16 K	–	20
[1], 422.28 K	–	20
[2], 9.29 kPa	129.09	–
[2], 11.93 kPa	135.40	–
[2], 14.57 kPa	140.24	–
[2], 16.68 kPa	144.32	–
[2], 18.79 kPa	147.39	–
[2], 20 kPa	149.01	–
[2], 20.91 kPa	150.40	–
[2], 23.02 kPa	152.89	–
[2], 25.13 kPa	155.41	–
